# Test results taken from PubChem BioAssay AID212 (DTP/NCI, 2004).
# Values joined by “and” are separate entries in the source; they are usually repeats but may differ in a detail not shown here. Equal values may be shown once. Inconclusive results are not listed.
# Tested on: BDF1 mice, colon carcinoma 38 sc, T/C %
# Assay: NCI In Vivo Anticancer Drug Screen. Data for tumor model Colon Carcinoma 38 (subcutaneous) in B6D2F1 (BDF1) mice
# Details: endpoint: median tumor weight (est.), schedule: Q07DX002 (ip), higher = larger tumour
# Procedure, shortened: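 Transplantable tumor in mice; compound-treated vs vehicle-dosed controls. Measured survival or tumor size; value = T ÷ C.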
# [1] = dose: 25.0 mg/kg/injection, vehicle: saline
# [2] = dose: 50.0 mg/kg/injection, vehicle: saline
# [3] = dose: 200.0 mg/kg/injection, vehicle: saline
# [4] = dose: 400.0 mg/kg/injection, vehicle: saline
# [5] = dose: 12.5 mg/kg/injection, vehicle: saline
# [6] = dose: 100.0 mg/kg/injection, vehicle: saline
# [7] = dose: 3.12 mg/kg/injection, vehicle: saline with Tween-80
# [8] = dose: 6.25 mg/kg/injection, vehicle: saline with Tween-80
# [9] = dose: 50.0 mg/kg/injection, vehicle: saline with Tween-80
# [10] = dose: 200.0 mg/kg/injection, vehicle: saline with Tween-80
# [11] = dose: 12.5 mg/kg/injection, vehicle: saline with Tween-80
# [12] = dose: 25.0 mg/kg/injection, vehicle: saline with Tween-80
# [13] = dose: 100.0 mg/kg/injection, vehicle: Klucel (hydroxypropylcellulose) (HPC)
# [14] = dose: 50.0 mg/kg/injection, vehicle: Klucel (hydroxypropylcellulose) (HPC)
# [15] = dose: 100.0 mg/kg/injection, vehicle: saline with Tween-80
# [16] = dose: 200.0 mg/kg/injection, vehicle: Klucel (hydroxypropylcellulose) (HPC)
# [17] = dose: 400.0 mg/kg/injection, vehicle: Klucel (hydroxypropylcellulose) (HPC)
smiles,measurement,setting,value
CCCCCn1c(C)cc(/C=C\c2ccc3cc(C)ccc3[n+]2C)c1C,T/C,"dose: 0.62 mg/kg/injection, vehicle: Klucel (hydroxypropylcellulose) (HPC)",85 % of control and 86 % of control
same,T/C,"dose: 1.25 mg/kg/injection, vehicle: Klucel (hydroxypropylcellulose) (HPC)",104 % of control
same,T/C,"dose: 37.5 micrograms/kg/injection, vehicle: Klucel (hydroxypropylcellulose) (HPC)",84 % of control
same,T/C,"dose: 75.0 micrograms/kg/injection, vehicle: Klucel (hydroxypropylcellulose) (HPC)",186 % of control
same,T/C,"dose: 150.0 micrograms/kg/injection, vehicle: Klucel (hydroxypropylcellulose) (HPC)",162 % of control
same,T/C,"dose: 600.0 micrograms/kg/injection, vehicle: Klucel (hydroxypropylcellulose) (HPC)",188 % of control
C(=N/NC1=NCCN1)/c1c2ccccc2c(/C=N\NC2=NCCN2)c2ccccc12,T/C,"dose: 5.0 mg/kg/injection, vehicle: suspension in saline",100 % of control
same,T/C,"dose: 10.0 mg/kg/injection, vehicle: suspension in saline",109 % of control
same,T/C,"dose: 20.0 mg/kg/injection, vehicle: suspension in saline",110 % of control
same,T/C,"dose: 40.0 mg/kg/injection, vehicle: suspension in saline",70 % of control
CN(C)C=O,T/C,[1],45 % of control
same,T/C,[2],83 % of control
same,T/C,[3],89 % of control
same,T/C,[4],89 % of control and 92 % of control
same,T/C,"dose: 800.0 mg/kg/injection, vehicle: saline",115 % of control
Nc1cc2[nH]cnc2c(=O)[nH]1,T/C,[5],66 % of control
same,T/C,[1],168 % of control
same,T/C,[6],113 % of control
same,T/C,[3],99 % of control
same,T/C,[4],117 % of control
O=C(O)Cc1cccc2c(=O)cc(-c3ccc4ccccc4c3)oc12,T/C,[6],104 % of control
same,T/C,[3],59 % of control
Cc1cc(SCC(=O)c2ccc(Br)cc2)cc(C)[o+]1,T/C,[5],122 % of control
same,T/C,[1],77 % of control and 101 % of control
same,T/C,[2],111 % of control and 107 % of control
same,T/C,[6],98 % of control and 100 % of control
same,T/C,[3],100 % of control
CO[C@@H]1[C@H](O)CC[C@]2(CO2)[C@H]1[C@@]1(C)O[C@@H]1CC=C(C)C,T/C,[7],46 % of control and 55 % of control
same,T/C,[8],50 % of control and 61 % of control
same,T/C,[9],63 % of control and 68 % of control and 71 % of control
same,T/C,[10],92 % of control
COc1cc(C(C)(C)C)cc(OC)c1C(O)(c1c(OC)cc(C(C)(C)C)cc1OC)c1c(OC)cc(C(C)(C)C)cc1OC,T/C,[11],70 % of control and 77 % of control
same,T/C,[9],95 % of control and 102 % of control
same,T/C,[10],88 % of control
same,T/C,"dose: 400.0 mg/kg/injection, vehicle: saline with Tween-80",62 % of control
CC(C)(C)N1CC1CNC(=O)C(=O)NCC1CN1C(C)(C)C (centres undefined),T/C,[7],81 % of control and 106 % of control
c1ccc2c(c1)-c1ccccc1C1NC21 (centres undefined),T/C,"dose: 12.0 mg/kg/injection, vehicle: saline with Tween-80",104 % of control
same,T/C,[12],117 % of control
same,T/C,[9],93 % of control
O=c1ssc(=Nc2ccccc2)n1-c1ccccc1,T/C,[13],97 % of control and 102 % of control
O=Cc1ccccc1,T/C,"dose: 25.0 mg/kg/injection, vehicle: Klucel (hydroxypropylcellulose) (HPC)",77 % of control
same,T/C,[12],69 % of control
same,T/C,[14],83 % of control
same,T/C,[9],77 % of control
same,T/C,[13],98 % of control
same,T/C,[15],108 % of control
same,T/C,[16],60 % of control
same,T/C,[10],112 % of control
same,T/C,[17],97 % of control
CN(C)CCN1C(=O)c2cccc3cc([N+](=O)[O-])cc(c23)C1=O,T/C,"dose: 1.56 mg/kg/injection, vehicle: saline with Tween-80",93 % of control
same,T/C,"dose: 3.13 mg/kg/injection, vehicle: saline with Tween-80",90 % of control
same,T/C,[8],70 % of control
same,T/C,[11],56 % of control
COc1ccc(C[C@H](N)C(=O)NC2C(CO)OC(n3cnc4c(N(C)C)ncnc43)C2O)cc1 (some centres undefined),T/C,[5],81 % of control
same,T/C,"dose: 24.0 mg/kg/injection, vehicle: saline",79 % of control and 91 % of control
same,T/C,[1],86 % of control
same,T/C,"dose: 48.0 mg/kg/injection, vehicle: saline",80 % of control and 82 % of control
same,T/C,[2],92 % of control and 106 % of control
same,T/C,"dose: 96.0 mg/kg/injection, vehicle: saline",91 % of control and 108 % of control
same,T/C,[6],89 % of control and 94 % of control
same,T/C,"dose: 192.0 mg/kg/injection, vehicle: saline",72 % of control and 93 % of control
same,T/C,[3],55 % of control and 64 % of control
same,T/C,"dose: 384.0 mg/kg/injection, vehicle: saline",64 % of control and 84 % of control
same,T/C,[4],21 % of control
Nc1ccc(Cl)cc1N,T/C,[11],75 % of control and 97 % of control
same,T/C,[12],78 % of control and 92 % of control
CC(=O)N(C)C,T/C,"dose: 225.0 mg/kg/injection, vehicle: saline",123 % of control
same,T/C,"dose: 900.0 mg/kg/injection, vehicle: saline",111 % of control and 100 % of control
same,T/C,"dose: 1800.0 mg/kg/injection, vehicle: saline",62 % of control and 84 % of control
same,T/C,"dose: 3600.0 mg/kg/injection, vehicle: saline",46 % of control and 65 % of control
COc1cc([C@@H]2c3cc4c(cc3[C@@H](OC3OC5CO[C@@H](c6cccs6)OC5C(O)C3O)[C@H]3COC(=O)[C@H]23)OCO4)cc(OC)c1O (some centres undefined),T/C,"dose: 1.0 mg/kg/injection, vehicle: suspension in saline",88 % of control
same,T/C,"dose: 2.0 mg/kg/injection, vehicle: suspension in saline",113 % of control and 100 % of control
same,T/C,"dose: 4.0 mg/kg/injection, vehicle: suspension in saline",63 % of control and 75 % of control
CC[C@]1(O)C[C@H]2CN(CCc3c([nH]c4ccccc34)[C@@](C(=O)OC)(c3cc4c(cc3OC)N(C)[C@H]3[C@@](O)(C(=O)OC)[C@H](OC(C)=O)[C@]5(CC)C=CCN6CC[C@]43[C@@H]65)C2)C1,T/C,"dose: 4.0 mg/kg/injection, vehicle: saline",20 % of control and 22 % of control
Cc1ccc[c]([Hg][Cl])c1N=Nc1ccccc1,T/C,[8],69 % of control
COc1cc2cc3cc4cc(OC)c(OC)cc4c(C)[n+]3cc2cc1OC (tested in a mixture with another compound),T/C,[5],74 % of control and 94 % of control
same,T/C,"dose: 12.5 mg/kg/injection, vehicle: suspension in saline",83 % of control
same,T/C,"dose: 25.0 mg/kg/injection, vehicle: suspension in saline",85 % of control
same,T/C,[2],81 % of control and 100 % of control
same,T/C,"dose: 50.0 mg/kg/injection, vehicle: suspension in saline",98 % of control
same,T/C,[6],82 % of control and 88 % of control
same,T/C,"dose: 100.0 mg/kg/injection, vehicle: suspension in saline",116 % of control
same,T/C,[3],74 % of control
same,T/C,"dose: 200.0 mg/kg/injection, vehicle: suspension in saline",50 % of control
same,T/C,"dose: 400.0 mg/kg/injection, vehicle: suspension in saline",89 % of control
O=C(Nc1cccc2c(OC(=O)C(Cl)Cl)c(N=Nc3ccc(S(=O)(=O)Nc4nccs4)cc3)cc(N=Nc3ccc(S(=O)(=O)Nc4nccs4)cc3)c12)C(Cl)Cl (tested in a mixture with another compound),T/C,[8],91 % of control
same,T/C,[11],100 % of control
same,T/C,[12],77 % of control
same,T/C,[9],92 % of control
same,T/C,[15],88 % of control
CC(C)CC(NC(=O)CF)C(=O)O (centres undefined),T/C,"dose: 0.62 mg/kg/injection, vehicle: saline",46 % of control
same,T/C,"dose: 0.63 mg/kg/injection, vehicle: saline",75 % of control
same,T/C,"dose: 1.25 mg/kg/injection, vehicle: saline",94 % of control and 96 % of control
same,T/C,"dose: 5.0 mg/kg/injection, vehicle: saline",74 % of control and 76 % of control
same,T/C,"dose: 10.0 mg/kg/injection, vehicle: saline",71 % of control and 92 % of control
Clc1ccc(C2SC=Cc3ccccc32)cc1 (centres undefined),T/C,[14],56 % of control
same,T/C,[13],47 % of control
same,T/C,[16],57 % of control
same,T/C,[17],93 % of control
